pIC50: −log10 of the molar value. Calls of active or inactive are those of the source. No cut-off for these calls is given here.
Legend:
[1] = Cytotoxicity against human SH-SY5Y cells assessed as cell viability at 3.1 uM measured after 2 hrs by MTT assay relative to control; type: cell-based; conditions: read-out: Activity
[2] = Cytotoxicity against human SH-SY5Y cells assessed as cell viability at 3.1 uM measured after 24 hrs by MTT assay relative to control; type: cell-based; conditions: read-out: Activity
[3] = Cytotoxicity against human SH-SY5Y cells assessed as cell viability at 12.5 uM measured after 2 hrs by MTT assay relative to control; type: cell-based; conditions: read-out: Activity
[4] = Antioxidant activity assessed as DPPH radical scavenging activity incubated for 60 mins in absence of light; type: functional
[5] = Cytotoxicity against human SH-SY5Y cells assessed as cell viability at 1.6 uM measured after 2 hrs by MTT assay relative to control; type: cell-based; conditions: read-out: Activity
[6] = Cytotoxicity against human SH-SY5Y cells assessed as cell viability at 6.3 uM measured after 2 hrs by MTT assay relative to control; type: cell-based; conditions: read-out: Activity
[7] = Cytotoxicity against human SH-SY5Y cells assessed as cell viability at 50 uM measured after 24 hrs by MTT assay relative to control; type: cell-based; conditions: read-out: Activity
[8] = system: SH-SY5Y; experiment: Cytoprotective activity against DMSO-induced toxicity in human SH-SY5Y cells; type: functional, cell-based
[9] = Cytotoxicity against human SH-SY5Y cells assessed as cell viability at 0.8 uM measured after 24 hrs by MTT assay relative to control; type: cell-based; conditions: read-out: Activity
[10] = system: SH-SY5Y; experiment: Antioxidant activity in human SH-SY5Y cells assessed as inhibition of H2O2-induced DCFH oxidation measured after 1 hr by DCFH-DA dye based fluorescence assay; type: functional, cell-based
[11] = Drug concentration in Sprague-Dawley rat brain at 0.2 mmol/Kg, ip measured after 1 hr by HPLC based fluorimetric analysis; type: ADME, organism-based; conditions: in vivo
[12] = Drug concentration in Sprague-Dawley rat plasma at 0.2 mmol/Kg, ip measured after 1 hr by HPLC based fluorimetric analysis; type: ADME, organism-based
[13] = Retention time in Sprague-Dawley rat brain by HPLC based fluorimetric analysis; type: ADME, tissue-based
[14] = Cytotoxicity against human SH-SY5Y cells assessed as cell viability at 25 uM measured after 24 hrs by MTT assay relative to control; type: cell-based; conditions: read-out: Activity
[15] = Cytotoxicity against human SH-SY5Y cells assessed as cell viability at 0.8 uM measured after 2 hrs by MTT assay relative to control; type: cell-based; conditions: read-out: Activity
[16] = Cytotoxicity against human SH-SY5Y cells assessed as cell viability at 50 uM measured after 2 hrs by MTT assay relative to control; type: cell-based; conditions: read-out: Activity
[17] = Cytotoxicity against human SH-SY5Y cells assessed as cell viability at 100 uM measured after 2 hrs by MTT assay relative to control; type: cell-based; conditions: read-out: Activity
[18] = Cytotoxicity against human SH-SY5Y cells assessed as cell viability at 1.6 uM measured after 24 hrs by MTT assay relative to control; type: cell-based; conditions: read-out: Activity
[19] = Cytotoxicity against human SH-SY5Y cells assessed as cell viability at 100 uM measured after 24 hrs by MTT assay relative to control; type: cell-based; conditions: read-out: Activity
[20] = Cytotoxicity against human SH-SY5Y cells assessed as cell viability at 12.5 uM measured after 24 hrs by MTT assay relative to control; type: cell-based; conditions: read-out: Activity
[21] = Cytotoxicity against human SH-SY5Y cells assessed as cell viability at 6.3 uM measured after 24 hrs by MTT assay relative to control; type: cell-based; conditions: read-out: Activity
[22] = Permeability of the compound at pH 7.4 by PAMPA-BBB assay; type: ADME; conditions: read-out: permeability
[23] = Cytotoxicity against human SH-SY5Y cells assessed as cell viability at 25 uM measured after 2 hrs by MTT assay relative to control; type: cell-based; conditions: read-out: Activity
[24] = Retention time in Sprague-Dawley rat plasma by HPLC based fluorimetric analysis; type: ADME, cell-free

SMILES	pIC50 [4]	pIC50 [10]	Ct [11] [nmol/g]	concentration at 1 h [12] [nM]	viability at 2 h, 3.1 µM [1] [%]	viability at 24 h, 3.1 µM [2] [%]	viability at 2 h, 12.5 µM [3] [%]	viability at 2 h, 1.6 µM [5] [%]	viability at 2 h, 6.3 µM [6] [%]	viability at 24 h, 50 µM [7] [%]	viability at 24 h, 0.8 µM [9] [%]	Activity [10]	viability at 24 h, 25 µM [14] [%]	viability at 2 h, 0.8 µM [15] [%]	viability at 2 h, 50 µM [16] [%]	viability at 2 h, 100 µM [17] [%]	viability at 24 h, 1.6 µM [18] [%]	viability at 24 h, 100 µM [19] [%]	viability at 24 h, 12.5 µM [20] [%]	viability at 24 h, 6.3 µM [21] [%]	other results
COc1cc2c(cc1O)CCC(C)(CC(N)C(=O)O)O2 (configuration not stated)	4.85	< 3.70	15.8	52300	100	100	100	100	100	85.7	82.7	Dose-dependent effect	88.5	100	100	87.8	100	60.1	100	100	Activity [8]: Active; Retention_time [13]: 7 min; Papp [22]: 0.04 ×10⁻⁶ cm/s; viability at 2 h, 25 µM [23]: 100%
COc1cc2c(cc1O)CCC(C)(C)O2	4.85	4.66	4	2400	85.6	99.4	91.5	94.1	92.2	95.2	91.1	Dose-dependent effect	93.2	98.5	86.8	66.9	93.9	96.1	100	98	Retention_time [24]: 8 min; Retention_time [13]: 8 min; Papp [22]: 0.25 ×10⁻⁶ cm/s; viability at 2 h, 25 µM [23]: 90.6%
COc1cc2c(cc1O)CCC(C)(CCNC(=O)C[C@H]1OC(O)[C@H](O)[C@@H](O)[C@@H]1O)O2 (some centres not stated)	4.88	4.45	3.1	26000	93.3	88.1	100	95.3	100	86.6	96.1	Dose-dependent effect	87.9	88.9	99.6	77.6	96.7	56.6	90.6	87.2	Activity [8]: Active; Retention_time [13]: 2 min; viability at 2 h, 25 µM [23]: 100%

More lines, in order of rising pIC50 [4], values ahead:

pIC50 [4]	pIC50 [10]	Ct [11] [nmol/g]	concentration at 1 h [12] [nM]	SMILES	viability at 2 h, 3.1 µM [1] [%]	viability at 24 h, 3.1 µM [2] [%]	viability at 2 h, 12.5 µM [3] [%]	viability at 2 h, 1.6 µM [5] [%]	viability at 2 h, 6.3 µM [6] [%]	viability at 24 h, 50 µM [7] [%]	viability at 24 h, 0.8 µM [9] [%]	Activity [10]	viability at 24 h, 25 µM [14] [%]	viability at 2 h, 0.8 µM [15] [%]	viability at 2 h, 50 µM [16] [%]	viability at 2 h, 100 µM [17] [%]	viability at 24 h, 1.6 µM [18] [%]	viability at 24 h, 100 µM [19] [%]	viability at 24 h, 12.5 µM [20] [%]	viability at 24 h, 6.3 µM [21] [%]	other results
4.83	4.35	0	900	COc1cc2c(cc1O)CCC(C)(CC(=O)N[C@@H](Cc1ccccc1)C(=O)O)O2 (some centres not stated)	100	93	100	100	100	89.5	100	Dose-dependent effect	81.1	99	100	72.2	100	59.1	82.3	87.5	Activity [8]: Active; Papp [22]: 0.49 ×10⁻⁶ cm/s; viability at 2 h, 25 µM [23]: 100%
4.84	4.30	2.3	3000	COc1cc2c(cc1O)CCC(C)(CCNC(C)=O)O2 (configuration not stated)	82.3	90.7	84.8	100	79.4	66.5	89	Dose-dependent effect	76.2	91.3	81.2	66.6	78.7	57.9	83.5	87.8	Retention_time [13]: 4 min; Papp [22]: 0.52 ×10⁻⁶ cm/s; viability at 2 h, 25 µM [23]: 89.2%

— ChEMBL document CHEMBL4715750, “Synthesis and in vitro, ex-vivo and in vivo activity of hybrid compounds linking a potent ROS and RNS scavenger activity with diverse substrates addressed to pass across the blood-brain barrier” (Eur J Med Chem, 2016)
